# Assay results from publication PMC9088798, “An Approach to Derive Functional Peptide Inhibitors of Transcription Factor Activity” (JACS Au, 2022).
# Where no end group is shown, it is not given here.
# What was measured:
# TRE-mDHFR = assay: DHFR activity assay (NADPH turnover at 340 nm), TRE-mDHFR; type: biochemical, murine
# Method: (§1) (A) Fifteen TRE sites were introduced into the mDHFR gene (2 silent and 13 substitutions) to allow for a cJun-induced transcriptional block. […] Change in absorbance at 340 nm was measured to determine the rate of NADPH turnover by (B) WT-mDHFR and (C) TRE-mDHFR with or without the substrate DHF. […] Specific activity was calculated from the linear initial rate (first 2.5 min for WT-mDHFR, first 10 min for TRE-mDHFR; +NADPH only reaction blank subtracted). Data are averages from triplicate experiments with errors shown as one standard deviation.
# (§2) Jupiter Proteo column (4-μm particle size, 90 Å pore size, 250 × 10 mm; Phenomenex) using a water:acetonitrile gradient (0.1% TFA). Peptides without a SUMO tag, were concentrated after Histrap elution and HPLC purified. […]
# (§3) or Mtx (1 µM in reaction). Reactions were initiated by the addition of DHF (50 µM in reaction plus a blank reaction with no DHF) and the absorbance at 340 nm of samples was measured using a Varian Cary 50 UV-Vis spectrophotometer. The specific activity (∆OD/minsample― ∆OD/minblank) was calculated using the following equation. Specific activity = 12.3× mg protein Library Construction and TBS Assay: Library inserts were produced using PCR fill-in reactions from synthesised primers (Sigma) with degenerate codons at the desired positions to produce the correct residue options. […]
# WT-mDHFR = assay: DHFR activity assay (NADPH turnover at 340 nm), WT-mDHFR; type: biochemical, murine
# Method: as §1, §2, §3
# cJun/TRE DNA interaction = target: T1, cJun/TRE DNA interaction (Homo sapiens, UniProt P05412); assay: CD TRE DNA peak shift, antagonism of cJun/TRE DNA interaction; type: biochemical; details: cJun 20 μM, TRE DNA 5 μM, DNA peak ~281 nm, Hill equation; three independent experiments, one SD; pH 7.4
# T1 construct: The human cJun bZIP domain spans from Arg252 to Leu308; His-SUMO (N, cleaved yes); AS cap (two residues Ala-Ser) (N); GAP cap (three residues Gly-Ala-Pro) (C); made in house; host or cells: E. coli (pET21-His-SUMO plasmid)
# Method: The binding of cJun to TRE DNA can be observed by monitoring a DNA absorbance peak in the CD spectrum centered at ∼281 nm.[44] […] The addition of cJun (20 μM) to TRE DNA (5 μM) decreases this DNA peak by 55% as the cJun engages its target TRE site and alters the DNA structure (Figure 6A). Subsequent titration of HingeW into this bound cJun/TRE DNA mixture reverses the peak shift, with the peak increasing as DNA is released.
# Figure 6 HingeW antagonizes cJun/TRE DNA interaction more effectively than A-FosW. (A) CD spectra showing a shift in the TRE DNA peak at ∼281 nm upon addition of cJun, which is reversed by the titration of HingeW into the sample, as HingeW sequesters the cJun in a nonfunctional heterodimer. […] EMSA showing the (C) unbound TRE DNA band shift upon addition of cJun and the subsequent restoration of the unbound DNA band intensity upon titration of either (D) HingeW or (E) A-FosW. (F). For both CD and EMSA, data was averaged from three independent experiments and the plotted error bars indicate one standard deviation. […]
# (§4) µM) alongside ampicillin, kanamycin and chloramphenicol to maintain the required plasmids, and IPTG (1 mM) to induce protein expression. The library transformants were […]
# increased to the optimum 4 µM in subsequent passages. […] This allows the occurrence of library members to be monitored as winner sequences are selected for. […]
# [1] = test system: cJun bZIP / TRE sites in TRE-mDHFR gene; assay: Transcription block survival (TBS) colony counting in E. coli; type: cell-based, human cJun, expressed in E. coli; details: three experimental repeats
# Method: Figure 3 Transcription block survival (TBS) assay to derive functionally active cJun inhibitors. (A) Schematic illustrating the design and operation of TBS. (B) Controlled numbers of E. coli expressing the indicated proteins were plated on selective media and growth rates were calculated by counting colony-forming units. […] (2) A small effect on colony numbers is observed when cJun bZIP is additionally expressed. (3) TRE-mDHFR can replace the inhibited ecDHFR with colony count lower than for WT as expected. […] Although (6) cFos LZ and (7) FosW are known cJun-binders, they are unable to effectively dissociate the cJun bZIP from TRE DNA. However, (8) A-FosW and the TBS-derived hit (9) HingeW remove TRE-mDHFR transcriptional blocks to restore cell survival. Bar charts represent averages of three experimental repeats. Errors are shown as one standard deviation. Selected P values from a t-test are indicated (*P ≤ 0.05; **P ≤ 0.01; ****P ≤ 0.0001) with values for all possible comparisons within the bar chart reported in Figure S7. Serial dilutions were used to quantify colony numbers where required. Also shown are representative plate images and schematics to illustrate the effect upon TRE-mDHFR transcription. […]
# Library Construction and TBS Assay: Library inserts were produced using PCR fill-in reactions from synthesised primers (Sigma) with degenerate codons at the desired positions to produce the correct residue options. The library was subcloned using SacI and AscI sites into the pET24a plasmid containing A-FosW. The primers used were cJun- […]
# -3’ and cJun-Hinge-Lib_R: 5’-
# -3’. The library DNA was transformed into NEB 10-beta electrocompetent E. coli cells. The following equation was utilised to determine library […]
# coverage by the number of single colonies: where E is the percentage […] of the library missing, m is the number of colonies collected and n is the library size. This […]
# covered. Library DNA quality was assessed by sequencing both the DNA pool and a number of single colonies to show degenerate codons in the correct positions in the pool and to show a diversity of library members from single colonies. The pool of library DNA was transformed into BL21 Gold cells already containing pES300d-TRE-mDHFR and […]
# as §4
# however a lower stringency is used initially before selection is increased in later steps.
# Colonies from this first round of selection were pooled and serially grown in liquid culture at starting OD600 of 0.05 and grown at 37°C with shaking at 200 rpm until the OD600 […]
# increased to the optimum 4 µM in subsequent passages. Bacteria containing the most effective functional antagonists were expected to produce higher levels of TRE-mDHFR which provides a growth advantage, and these will dominate the culture. At each passage step, a sample of the culture was plated on LB agar (supplemented with antibiotics to maintain plasmids) to select and sequence individual colonies, and a DNA pool was also sequenced. This allows the occurrence of library members to be monitored as winner sequences are selected for. Assay Validation experiments utilised a modified assay methodology whereby overnight cultures from glycerol stocks of the Control Strains (Figure S6) were diluted to OD600=0.5 and 50 µL was plated on a selective M9 minimal […]
# T1 sequence (P05412 252-308): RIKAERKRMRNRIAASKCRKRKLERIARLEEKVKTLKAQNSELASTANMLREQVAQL
molecule,measurement,setting,value
"CN(Cc1cnc2nc(N)nc(N)c2n1)c1ccc(C(=O)N[C@@H](CCC(=O)O)C(=O)O)cc1 [MTX, methotrexate, reference compound]",inhibition by MTX,TRE-mDHFR,clear inhibition of the reaction
same,inhibition by MTX,WT-mDHFR,clear inhibition of the reaction
"MASLDELQAEIEQLEERNYALRKEIEDLQKQLEKLGAPHHHHHH [FosW, reference compound]",IC50,cJun/TRE DNA interaction,119.8 ± 1.1 µM
"cFos LZ: human cFos leucine zipper domain, Thr162 to Leu193 [reference compound]",restoration of colony numbers of transcriptionally blocked cells,"[1]; TRE-mDHFR + cJun bZIP + peptide vs TRE-mDHFR + cJun bZIP, M9 + TMP + IPTG, P > 0.05",no significant increase in colony numbers
"cJun LZ: cJun LZ only construct in which the 25 residue DBD was deleted; Ile277 to Leu308 (IARLEEKVKTLKAQNSELASTANMLREQVAQL; UniProt P05412 277-308, looked up, fragment) [reference compound]",effect of cJun LZ (DBD deleted) on colony formation,"[1]; TRE-mDHFR + cJun LZ vs TRE-mDHFR only, P = 0.1",did not affect bacterial colony formation
